Several values for one entry are separate records, joined by “and”; a condition that tells them apart may be missing. Equal entries are not always repeated. Entries after “also recorded” stand apart in the source; their conditions may differ. Where two headings read alike, the source gives them in different places.
Legend:
[1] = target: T1, Electric eel acetylcholinesterase (Electrophorus electricus, UniProt O42275); assay: In vitro AChE inhibition assay (Ellman spectrophotometric method); format: biochemical
T1 construct: purchased Sigma Co. (St. Louis, MO, USA)
T1 sequence (O42275 24-633): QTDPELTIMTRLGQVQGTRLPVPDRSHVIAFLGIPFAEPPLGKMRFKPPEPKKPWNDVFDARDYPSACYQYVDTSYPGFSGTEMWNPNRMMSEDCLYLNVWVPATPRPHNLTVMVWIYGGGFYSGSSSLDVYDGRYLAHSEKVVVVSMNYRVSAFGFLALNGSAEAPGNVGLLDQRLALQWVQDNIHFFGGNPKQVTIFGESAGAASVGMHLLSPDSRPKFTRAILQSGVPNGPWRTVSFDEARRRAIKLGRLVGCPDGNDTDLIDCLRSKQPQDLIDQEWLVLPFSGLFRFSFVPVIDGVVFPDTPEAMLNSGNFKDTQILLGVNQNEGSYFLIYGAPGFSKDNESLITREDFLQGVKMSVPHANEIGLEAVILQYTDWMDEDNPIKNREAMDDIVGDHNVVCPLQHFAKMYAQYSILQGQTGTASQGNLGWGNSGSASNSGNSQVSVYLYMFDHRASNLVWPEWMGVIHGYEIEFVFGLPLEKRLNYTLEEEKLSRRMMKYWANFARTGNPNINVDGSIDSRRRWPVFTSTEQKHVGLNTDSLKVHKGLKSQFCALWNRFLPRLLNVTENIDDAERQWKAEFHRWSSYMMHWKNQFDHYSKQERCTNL
Experimental: (§1) The inhibitory activities of isolated compounds against ChEs were measured using the spectrophotometric method, as described previously. Briefly, AChI and BCh were used as the substrates to assay the inhibition of AChE and BChE, respectively. Each reaction mixture contained 140 µL of sodium phosphate buffer (pH 8.0); 20 µL of compounds (final conc., 100 µM); and, 20 µL of either AChE or BChE solution, which was mixed and incubated for 15 min at room temperature. […] Reactions were initiated by the addition of 10 µL of DTNB and 10 µL of either AChI or BCh. […] All of the reactions were performed in triplicate and recorded in 96-well microplate format using a microplate spectrophotometer (Molecular Devices, Sunnyvale, CA, USA). Percent inhibition was calculated as (1-S/E) × 100, where E and S were the respective enzyme activities without and with the tested sample, respectively.

[2] = target: T2, horse serum butyrylcholinesterase (Equus caballus, UniProt P81908); assay: In vitro BChE inhibition assay (Ellman spectrophotometric method); format: biochemical
T2 construct: horse-serum BChE (EC 3.1.1.8); purchased Sigma Co. (St. Louis, MO, USA); host or cells: horse serum
T2 sequence (P81908 whole entry): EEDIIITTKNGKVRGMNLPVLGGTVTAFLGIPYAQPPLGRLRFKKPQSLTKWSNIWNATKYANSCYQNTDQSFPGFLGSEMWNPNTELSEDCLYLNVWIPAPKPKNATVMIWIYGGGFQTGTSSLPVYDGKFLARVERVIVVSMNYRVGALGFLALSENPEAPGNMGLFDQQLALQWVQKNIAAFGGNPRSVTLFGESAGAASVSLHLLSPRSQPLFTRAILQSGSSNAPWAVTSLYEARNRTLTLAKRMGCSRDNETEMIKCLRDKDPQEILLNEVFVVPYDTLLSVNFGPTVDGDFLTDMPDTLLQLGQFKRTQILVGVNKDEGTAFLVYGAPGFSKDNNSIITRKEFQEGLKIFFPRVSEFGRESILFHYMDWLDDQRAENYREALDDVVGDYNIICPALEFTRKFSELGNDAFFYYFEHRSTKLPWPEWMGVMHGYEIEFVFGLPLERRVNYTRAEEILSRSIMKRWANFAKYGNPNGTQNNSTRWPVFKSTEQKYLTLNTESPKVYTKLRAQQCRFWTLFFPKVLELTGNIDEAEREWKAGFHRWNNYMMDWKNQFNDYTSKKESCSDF
Experimental: as §1

human recombinant BACE1 [3] = target: T3, human recombinant BACE1 (Homo sapiens, UniProt P56817); assay: In vitro BACE1 FRET enzyme assay; format: biochemical; details: for IC50: log dose inhibition curve; for BACE1 inhibitory activity (in words): at concentrations up to 200 µM
T3 construct: purchased Pan Vera Co. (Madison, WI, USA)
T3 sequence (P56817 46-501): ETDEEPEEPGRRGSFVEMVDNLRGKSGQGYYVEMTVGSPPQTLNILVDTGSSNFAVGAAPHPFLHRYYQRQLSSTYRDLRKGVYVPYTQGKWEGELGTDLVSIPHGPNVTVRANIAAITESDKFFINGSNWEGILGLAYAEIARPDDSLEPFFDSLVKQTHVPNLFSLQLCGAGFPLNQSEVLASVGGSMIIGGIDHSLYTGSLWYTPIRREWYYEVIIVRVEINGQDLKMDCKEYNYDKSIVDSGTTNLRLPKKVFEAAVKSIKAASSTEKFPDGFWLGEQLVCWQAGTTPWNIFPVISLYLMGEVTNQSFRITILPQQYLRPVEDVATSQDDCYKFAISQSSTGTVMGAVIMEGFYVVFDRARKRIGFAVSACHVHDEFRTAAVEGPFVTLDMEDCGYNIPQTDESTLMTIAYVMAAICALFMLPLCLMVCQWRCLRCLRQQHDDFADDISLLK
Experimental: Assays were performed according to the supplied manual (Pan Vera Co.) with selected modifications, as described previously. […] Fluorescence was measured with a microplate spectrophotometer (Molecular Devices). The percent of inhibition (%) was obtained by the following equation: % Inhibition = [1 − (S60 − S0)/(C60 − C0)] × 100, where C60 was the fluorescence of the control (enzyme, buffer, and substrate) after incubation for 60 min, C0 was the initial fluorescence of the control, S60 was the fluorescence of the tested samples (enzyme, sample solution, and substrate) after incubation for 60 min, and S0 was the initial fluorescence of the tested samples. To account for the quenching effect of samples, the sample solution was added to a separate reaction mixture C, and any reduction in fluorescence by the sample was investigated.

[4] = target: T1, Electric eel acetylcholinesterase; assay: Enzyme kinetic analysis with AChE (Dixon and Lineweaver-Burk plots); format: biochemical
Experimental: Inhibition constants (Ki) were determined by the interpretation of Dixon plots, where the x-axis intercept was taken as Ki.

[5] = design: method as in PMID 10319159; details: cited from earlier work
human recombinant BACE1 [6] = target: T3, human recombinant BACE1; assay: Enzyme kinetic analysis with BACE1 (Dixon and Lineweaver-Burk plots); format: biochemical
Experimental: Assays were performed according to the supplied manual (Pan Vera Co.) with selected modifications, as described previously. Briefly, mixtures of 10 µL of assay buffer (50 mM sodium acetate, pH 4.5), 10 µL of BACE1 (1.0 U/mL), 10 µL of the substrate (750 nM Rh-[…]-Quencher in 50 mM, ammonium bicarbonate), and 10 µL of compounds (final conc., 100 µM) dissolved in 10% DMSO were incubated for 60 min at 25 °C in the dark. The proteolysis of two fluorophores (Rh-[…]-Quencher) by BACE1 was monitored by the formation of fluorescent donor Rh-EVNL (530–545 nm, excitation; 570–590 nm, emission), the abundance of which was determined by measuring increase in fluorescence excited at 545 nm and recorded at 585 nm. Fluorescence was measured with a microplate spectrophotometer (Molecular Devices). The percent of inhibition (%) was obtained by the following equation: % Inhibition = [1 − (S60 − S0)/(C60 − C0)] × 100, where C60 was the fluorescence of the control (enzyme, buffer, and substrate) after incubation for 60 min, C0 was the initial fluorescence of the control, S60 was the fluorescence of the tested samples (enzyme, sample solution, and substrate) after incubation for 60 min, and S0 was the initial fluorescence of the tested samples. […]

human recombinant BACE1 [7] = target: T3, human recombinant BACE1; details: cited from earlier work; for BACE1 inhibitory activity (in words): compounds isolated from n-BuOH fraction in earlier study
[8] = mean ± S.E.M of triplicate experiments, log dose inhibition curve, read-out: AChE IC50
[9] = mean ± S.E.M of triplicate experiments, log dose inhibition curve, read-out: BChE IC50
[10] = mean ± S.E.M of triplicate experiments, read-out: BACE1 IC50

Work on `COc1ccc2cc3[n+](cc2c1OC)CCc1cc2c(cc1-3)OCO2` [Berberine, berberine, reference compound] yielded an IC50 [1] of 0.68 ± 0.01 µM.

`COc1cc(O)c2c(O)c3c(=O)cc(C)oc3cc2c1` [Compound 1, rubrofusarin] showed an IC50 [1] of 124 ± 1.39 µM, an IC50 [2] greater than 200 µM and an IC50 (human recombinant BACE1 [3]; BACE1 IC50, mean ± S.E.M of triplicate experiments) of 90 ± 2.38 µM.

In the case of `COc1cc(OC2OC(CO)C(O)C(O)C2O)c2c(O)c3c(=O)cc(C)oc3cc2c1` [Compound 2, rubrofusarin 6-O-β-D-glucopyranoside], the IC50 [1, 8] is reported as 148 ± 2.09 µM, the IC50 [2, 9] is reported as greater than 200 µM and the IC50 (human recombinant BACE1 [3]; [10]) is reported as 148 µM and 191 µM.

With `COc1cc(O[C@@H]2O[C@H](CO[C@@H]3O[C@H](CO)[C@@H](O)[C@H](O)[C@H]3O)[C@@H](O)[C@H](O)[C@H]2O)c2c(O)c3c(=O)cc(C)oc3cc2c1` [Compound 3, rubrofusarin 6-O-β-D-gentiobioside] the “AChE inhibition relative to 5, 6 and 4” value [1] was “five times”, the “AChE inhibition relative to 1” value ([1]; fold more effective than 1 (no sugar moiety)) was “eight times” and the “AChE inhibition relative to 2” value ([1]; fold more effective than 2 (one sugar moiety)) was “nine times”. It also gave an IC50 [1, 8] of 15.9 ± 0.32 µM, an IC50 [2, 9] of 141.2 ± 1.23 µM and an IC50 (human recombinant BACE1 [3]; [10]) of 85.7 ± 3.98 µM. The Ki ([4]; Dixon plot, read-out: Ki Value (AChE inhibition constant)) was 12.8 µM, the “Inhibition Type (AChE)” value ([4]; Lineweaver-Burk plot) was “mixed type inhibition; also recorded: Mixed type ^c” and the “Radical scavenging activity relative to 4” value [5] was “twice”.

With `Cc1cc(=O)c2c(O)c3c(OC4OC(CO)C(O)C(O)C4O)cc(O)cc3cc2o1` [Compound 4, nor-rubrofusarin 6-O-β-D-glucoside] the IC50 [1, 8] was 86 ± 2.01 µM, the IC50 [2, 9] was greater than 200 µM and the IC50 (human recombinant BACE1 [3]; [10]) was 86 µM and 14.4 µM. For the same compound, the Ki (human recombinant BACE1 [6]; Dixon plot, read-out: Ki Value (BACE1 inhibition constant)) was 10 µM, the “Inhibition Type (BACE1)” value (human recombinant BACE1 [6]; Lineweaver-Burk plot) was “mixed type of inhibition; also recorded: Mixed type ^e” and the “BACE1 inhibitory activity (in words)” value (human recombinant BACE1 [7]) was “most potent BACE1 inhibitory activity”.

In the case of `COc1cc(O[C@@H]2O[C@H](CO[C@@H]3O[C@H](CO)[C@@H](O)[C@H](O)[C@H]3O)[C@@H](O)[C@H](O)[C@H]2O)c2c(c1)cc(O)c1c(=O)cc(C)oc12` [Compound 5, isorubrofusarin 10-O-β-D-gentiobioside], the IC50 [1, 8] is reported as 83.5 ± 1.56 µM, the IC50 [2, 9] is reported as greater than 200 µM and the “BACE1 inhibitory activity (in words)” value (human recombinant BACE1 [3]) is reported as “no significant inhibitory activity”. It also gave an IC50 (human recombinant BACE1 [3]; [10]) greater than 200 µM.

In the case of `COc1cc(O[C@@H]2O[C@H](CO[C@@H]3O[C@H](CO)[C@@H](O)[C@H](O[C@@H]4O[C@H](CO)[C@@H](O)[C@H](O)[C@H]4O)[C@H]3O)[C@@H](O)[C@H](O)[C@H]2O)c2c(O)c3c(=O)cc(C)oc3cc2c1` [Compound 6, rubrofusarin 6-O-β-D-triglucoside], the IC50 [1, 8] is reported as 82.3 ± 1.63 µM, the IC50 [2, 9] is reported as greater than 200 µM and the “BACE1 inhibitory activity (in words)” value (human recombinant BACE1 [3]) is reported as “no significant inhibitory activity”. It also gave an IC50 (human recombinant BACE1 [3]; [10]) greater than 200 µM.

For `COc1cc(OC)c2c(=O)c(OC)c(-c3ccc(OC)c(OC)c3)oc2c1` [PMF, 3,5,7,3′,4′-pentamethoxyflavone, reference compound], the IC50 (human recombinant BACE1 [7]; read-out: BACE1 IC50, literature value for PMF) is given as 59.8 µM and the BACE1 inhibitor type (human recombinant BACE1 [7]; reported for PMF) is given as “noncompetitive inhibitor”.

In the case of toralactone gentiobioside, the “BACE1 inhibitory activity (in words)” value (human recombinant BACE1 [7]) is given as “moderate activity”.

From paper PMC6017707, “Structure Related Inhibition of Enzyme Systems in Cholinesterases and BACE1 In Vitro by Naturally Occurring Naphthopyrone and Its Glycosides Isolated from Cassia obtusifolia” (Molecules : A Journal of Synthetic Chemistry and Natural …, 2017)
